We go through 1 compound from patent US8895738B2, “Mesoionic pyrido [1, 2-A] pyrimidine pesticides” (E I du Pont de Nemours and Company, priority 2010, dated 2014).

Common to all, as to format: in vivo
Assay [1] relates to Rice plants (indica cultivar ‘Swarna’). Put plainly: Test N: harvest yield of rice crop outdoors, two foliar applications, Bargarh. Conditions: applied twice, Nilaparvata lugens level high, controls 620 kg/ha. The protocol: (§1) To evaluate the effect of application of a compound of the invention on the vigor of rice crops grown under outdoor conditions, Tests 1 through 0 were conducted. “a.i.” refers to the amount of active ingredient applied.
Rice plants (indica cultivar ‘Swarna’) were transplanted into flooded 4 m×3 m test plots of clay loam soil in the Bargarh district, Orissa, India, during the rainy season, and grown using local agronomic practices. After 70 days, aqueous mixtures of Compound 3 were applied to the foliage of the rice plants at 12.5, 25 or 50 g a.i./ha in a spray volume of 400 L/ha using a backpack sprayer. Plots of unsprayed rice plants were used as controls. Each treatment and control was replicated three times, and the plots were arranged in a randomized complete block design. At the time of application of Compound 3, the pest level of rice brown planthopper (Nilaparvata lugens) was high, i.e. much above the level considered economically significant. 14 days after the first treatment, the foliar applications of aqueous mixtures of Compound 3 were repeated at the same application rates in a spray volume of 400 L/ha.
Harvest yields from the crops treated with 12.5, 25 and 50 g a.i./ha of Compound 3 were 3190, 3660 and 4220 kg/ha, respectively, compared to 620 kg/ha from the untreated controls.

The test system of assay [2] is rice brown planthopper (Nilaparvata lugens). Put plainly: Test H: control of rice brown planthopper on rice plant. Conditions: 120 h, assessed after 5 days, read-out: control efficacy: mortality. On the procedure: For evaluating control of rice brown planthopper (Nilaparvata lugens) through contact and/or systemic means, the test unit consisted of a plastic pot containing a 13-cm-tall rice plant covered with steel wire mesh (50 mesh) supported by a wire frame. A small amount of sand was added to form a good seal between the bottom of the wire mesh, the soil surface and the top edge of the plastic pot.
Test compounds were formulated and sprayed at 10, 2 and/or 0.4 ppm, and the tests were replicated three times in a manner similar to the one described for Test A. After spraying, the test units were allowed to dry for 2 h before they were post-infested with 10 brown planthoppers (3rd instar nymphs, 7-9 days post-hatch). After 5 days, each test unit was visually assessed for insect mortality.

The subject of assay [3] is corn planthopper (Peregrinus maidis). The assay is described as follows: Test D: control of corn planthopper on maize plant, contact and/or systemic. Conditions: 144 h, assessed after 6 days, read-out: control efficacy: mortality. The protocol:
For evaluating control of corn planthopper (Peregrinus maidis) through contact and/or systemic means, the test unit consisted of a small open container with a 3-4-day-old maize plant (spike) inside. White sand was added to the top of the soil prior to application. Test compounds were formulated and sprayed at 250, 50, 10 and/or 2 ppm, and replicated three times as described for Test A. After spraying, the test units were allowed to dry for 1 h before they were post-infested with ˜15-20 nymphs (18 to 21 day old) by sprinkling them onto the sand with a salt shaker. A black, screened cap was placed on the top of each test unit, and the test units were held for 6 days in a growth chamber at 22-24° C. and 50-70% relative humidity. Each test unit was then visually assessed for insect mortality.

In assay [4] the test system is rice green leafhopper (Nephotettix virescens). The assay is described as follows: Test G: control of rice green leafhopper on rice plant. Conditions: 120 h, assessed after 5 days, read-out: control efficacy: mortality. On the procedure:
For evaluating control of rice green leafhopper (Nephotettix virescens) through contact and/or systemic means, the test unit consisted of a plastic pot containing a 13-cm-tall rice plant covered with steel wire mesh (50 mesh) supported by a wire frame. A small amount of sand was added to form a good seal between the bottom of the wire mesh, the soil surface and the top edge of the plastic pot.
Test compounds were formulated and sprayed at 50, 10 and/or 2 ppm, and the tests were replicated three times in a manner similar to the one described for Test A. After spraying, the test units were allowed to dry for 2 h before they were post-infested with 10 green leafhoppers (3rd instar nymphs, 7-9 days post-hatch). After 5 days, each test unit was visually assessed for insect mortality.

Assay [5] relates to Rice plants (indica cultivar ‘IR 64’). The assay is described as follows: Test L: vigor and harvest yield of rice crop outdoors, Dhamtari. To be noted: for harvest yield: controls 2630 kg/ha. On the procedure: as §1
Rice plants (indica cultivar ‘IR 64’) were transplanted into flooded 6 m×5 m test plots of clay loam soil in the Dhamtari district, State of Chhattisgarh, India, in the early spring season, and grown using local agronomic practices. After 79 days, in the hot season before monsoon arrival, aqueous mixtures containing 30 g a.i./ha of indoxacarb in form of STEWARD® Insecticide, 20 g a.i./ha of chlorantraniliprole, and 6.25, 12.5, 25 or 50 g a.i./ha of Compound 3 were applied to the foliage of the rice plants at in a spray volume of 500 L/ha using a backpack sprayer. Plots of control rice plants were sprayed with an aqueous mixture containing 30 g a.i./ha of indoxacarb in form of STEWARD® Insecticide and 20 g a.i./ha of chlorantraniliprole (i.e. no Compound 3). Each treatment and control was replicated three times, and the plots were arranged in a randomized complete block design. At the time of application of Compound 3, the pest level of rice brown planthopper (Nilaparvata lugens) was high, i.e. above the level considered economically significant.
Even though the pest level was high, at the time of treatment the plants had already reached full height and produced panicles, so the treatment with Compound 3 was too late to noticeably increase crop vigor rated by general external appearance (e.g., plant height, number of panicles). Nevertheless, the treatments substantially benefited crop vigor as measured by harvest yield. Harvest yields from the crops treated with 6.25, 12.5, 25 and 50 g a.i./ha of Compound 3 were 4630, 4830, 4730 and 4930 kg/ha, respectively, compared to 2630 kg/ha from the untreated controls.

Counter-ions that a name gives are not always drawn.

Take `O=c1c(-c2cccc(C(F)(F)F)c2)c([O-])[n+](Cc2cncnc2)c2ccccn12` [Compound 3, 2-hydroxy-4-oxo-1-(5-pyrimidinylmethyl)-3-[3-(trifluoromethyl)phenyl]-4H-pyrido[1,2-a]pyrimidinium inner salt]: the harvest yield in assay [1] (12.5 g a.i./ha foliar) turned out to be 3190 kg/ha; in assay [1] (25 g a.i./ha foliar), 3660 kg/ha; in assay [1] (50 g a.i./ha foliar), 4220 kg/ha; in assay [5] (6.25 g a.i./ha with 30 g a.i./ha indoxacarb and 20 g a.i./ha chlorantraniliprole), 4630 kg/ha; in assay [5] (12.5 g a.i./ha with 30 g a.i./ha indoxacarb and 20 g a.i./ha chlorantraniliprole), 4830 kg/ha; in assay [5] (25 g a.i./ha with 30 g a.i./ha indoxacarb and 20 g a.i./ha chlorantraniliprole), 4730 kg/ha. In assay [5] (50 g a.i./ha with 30 g a.i./ha indoxacarb and 20 g a.i./ha chlorantraniliprole), this compound displayed a harvest yield of 4930 kg/ha. In addition, the mortality at 2 ppm in assay [2] (sprayed at 2 ppm), in assay [3] (sprayed at 2 ppm) and in assay [4] (sprayed at 2 ppm) was not below 80% throughout. Also, the mortality at 10 ppm in assay [2] (sprayed at 10 ppm), in assay [3] (sprayed at 10 ppm) and in assay [4] (sprayed at 10 ppm) was not below 80% throughout. Further, the mortality at 50 ppm in assay [3] (sprayed at 50 ppm) and in assay [4] (sprayed at 50 ppm) was not below 80% in each case. For the same compound, the mortality at 250 ppm in assay [3] (sprayed at 250 ppm) was not below 80%. In addition, the “crop vigor (visual rating, 0 to 200% scale, control = 100%)” value in assay [5] (all application rates (6.25, 12.5, 25 or 50 g a.i./ha) with 30 g a.i./ha indoxacarb and 20 g a.i./ha chlorantraniliprole, 21 days after application, Nilaparvata lugens level high) is listed as 100%.

Broadly, the mortality is the share of the test organisms that died.
